We go through five compounds from article PMC7689089, “Regorafenib combined with PD1 blockade increases CD8 T-cell infiltration by inducing CXCL10 expression in hepatocellular carcinoma” (Journal for Immunotherapy of Cancer, 2020).

Data set [1] deals with advanced HCC. Set-up: method as in ref 14 15. The following applies: previously treated patients with advanced HCC; phase I/II trial data; ref 14 15; cited from earlier work.
Data set [2] deals with advanced HCC. Set-up: method as in ref 4 5. The note with it: patients with advanced HCC; ref 4 5; cited from earlier work.
For data set [3], the system named is RIL-175 cells. The experiment in a line: CXCL10 secretion by RIL-175 cells in vitro (ELISA). The note with it: 2μM for 36hr; ELISA; n=6. It counts as cell-based, mouse. From the text: To determine if CXCL10 was produced by murine HCC cells in response to regorafenib treatment, we next cultured RIL-175 cells with various concentration of regorafenib in vitro and measured the CXCL10 levels by ELISA. […]
treated by regorafenib as standard of care (HCC) (using the DFCI Protocol No.: 13-416 “Collection of Specimens and Clinical Data for Patients with Known or Suspected Solid Tumors”, PI, Dr. Juric, MGH) or in a phase I clinical trial of regorafenib monotherapy in acute myeloid leukemia (AML) patients (ClinicalTrials.gov Identifier: NCT03042689, PI, Hobbs, MGH). Both protocols have been IRB approved, and written consent was obtained from all patients.
Protein analyses. Western blotting was performed using antibodies against Stat1 (D1K9Y), phosphorylated (p)-Stat1 (Tyr701) (D4A7), Stat3 (79D7), p-Stat3 (Ser727) (Cell Signaling Technology, Danvers, MA), and IFN-γ (EPR1108) (Abcam, Cambridge, MA). Multiplexed protein array analysis was performed for protein extracts from whole tumors, using V-PLEX Proinflammatory Panel 1 Mouse Kit, V-PLEX Cytokine Panel 1 Mouse Kit and V-PLEX […] (Meso-Scale Discovery, Rockville, MD). For cell supernatant collection, 1x10^6 of RIL-175 cells were cultured in DMEM medium with 2% FBS and regorafenib was given in a various dose.
Supernatant was collected after 36hr of incubation and multiplexed protein array analysis was done using the same kit above.
Flow cytometry analysis. Tumor tissues were extracted from the mice, weighted and minced with a scalpel. Hank’s buffered salt solution (HBSS) with 1.5mg/ml of collagenase and hyaluronidase was added to the minced tissues and incubated for 30 min at 37°C. After incubation, digested tissues were passed through the 70μm cell strainer and washed with PBS with 2% BSA. After preparation, cells were suspended in 2ml of PBS with 2% BSA, then counted using a cell counting plate (Kova slide) (if the final concentration of cell exceeded 10^7 cells/ml, a dilution factor was applied). One hundred microliters of this suspension were used per subsequent flow cytometry staining. […]

The conditions of data set [4]: mouse, in vivo.
Procedure: From the orthotopic HCC and liver damage mouse models described above, blood samples were collected at 1, 4, 7 and 24 hours after once-daily oral administration of 5, 10 and 20 mg/kg regorafenib, respectively, for 5 days. Anti-PD1 antibody was given on days 1 and 4 with dose of 10 mg/kg by intraperitoneal injection. Blood samples were drawn from four to five animals per sampling time point. Regorafenib and its active metabolites M-2, M-4 and M-5 were analyzed in plasma samples using a validated bioanalytical liquid chromatography-tandem mass spectrometry.[25 33] Pharmacokinetic (PK) parameters were derived from the area under the plasma concentration versus time curve (AUC) using a non-compartmental analysis.
In addition, we evaluated PK parameters in HCC-bearing mice after regorafenib administration alone at doses of 5, 10 and 20 mg/kg or in combination with anti-PD1 therapy at the 10 mg/kg regorafenib dose for 5 days to achieve a steady state.

Where two headings read alike, the source gives them in different places.

Turning to pembrolizumab: anti-PD1 antibody, in data set [1], the Responses is given as 14%–31%.

Consider `CNC(=O)c1cc(Oc2ccc(NC(=O)Nc3ccc(Cl)c(C(F)(F)F)c3)cc2)ccn1` [Sorafenib], for which, in data set [2], the “OS benefit over placebo” value is recorded as “approximately 3 months”.

With `NS(=O)(=O)c1cccc2c1C(=O)c1cccc(O)c1C2=O` [LLL12], in data set [3], the “CXCL10 expression in RIL-175 cells” value is “significantly increased”.

Take nivolumab: anti-PD1 antibody: the Responses in data set [1] is recorded as 14%–31%.

For the compound `NC(=O)c1cc(Oc2ccc(NC(=O)Nc3ccc(Cl)c(C(F)(F)F)c3)c(F)c2)ccn1` [M-4], in data set [4], the “Plasma Tmax” value is 7 h and the “Tumor Tmax” value stood at 7 h. In data set [4] (po, 5 mg/kg), the “Plasma AUC” value worked out at 363 ng·h/mL, the “Plasma AUCnorm” value turned out to be 0.0749 kg·h/L, the “Plasma Cmax” value was 21.7 ng/mL and the “Plasma Tmax” value is 7 h. In addition, in data set [4] (po, 5 mg/kg), the “Tumor AUC” value was found to be 1040 ng·h/mL, the “Tumor AUCnorm” value was 0.209 kg·h/L, the “Tumor Cmax” value came to 52.8 µg/kg and the “Tumor Tmax” value amounted to 4 h. In data set [4] (po, 10 mg/kg), the “Plasma AUC” value is 663 ng·h/mL, the “Plasma AUCnorm” value came out at 0.0684 kg·h/L, the “Plasma Cmax” value was found to be 40.5 ng/mL and the “Plasma Tmax” value is on record as 7 h. In addition, in data set [4] (po, 10 mg/kg), the “Tumor AUC” value turned out to be 2100 ng·h/mL, the “Tumor AUCnorm” value was determined as 0.210 kg·h/L, the “Tumor Cmax” value is 117 µg/kg and the “Tumor Tmax” value was determined as 7 h. Further, in data set [4] (po, 20 mg/kg), the “Plasma AUC” value was determined as 1480 ng·h/mL, the “Plasma AUCnorm” value is 0.0763 kg·h/L, the “Plasma Cmax” value was 124 ng/mL and the “Plasma Tmax” value is on record as 7 h. Moreover, in data set [4] (po, 20 mg/kg), the “Tumor AUC” value was determined as 3780 ng·h/mL, the “Tumor AUCnorm” value amounted to 0.189 kg·h/L, the “Tumor Cmax” value stood at 214 µg/kg and the “Tumor Tmax” value turned out to be 7 h.
